Laboratory results: patent publication EP2135864A1, “5-(4-methanesulfonyl-phenyl)-thiazole derivatives for the treatment of acute and chronic inflammatory diseases” (FAES FARMA, S.A., priority 2008, dated 2009)

Columns and labels:
IFN-gamma = IFN-gamma production by PBMC from patients with rheumatoid arthritis, CBA; type: cell-based, human; conditions: 24 hours, mean ± standard error, n=8
Procedure: (§1) CBA protocol was followed according to the manufacturer's instructions. The election of microparticles was performed following the summary of Figure 1.
(§2) The acquisition on samples was performed with the BD FACS Array Bioanalyser System (FACSArray, Becton Dickinson, San José, CA, USA) and the analysis of the results was completed with the software FCAP Array (Becton Dickinson) in a PC computer.
(§3) Briefly, the experimental protocol consisted of a plate pre-washing out with Wash Buffer. After decantation, the mixture of capture microparticles was re-suspended in the vortex. Standards and samples were added in the adequate dilution. After permanent stirring incubation during 1 h, the PE detection reagent was added and incubated again during 2h at room temperature. After a washing-out, the acquisition was performed in the flow cytometer. Table 3. -Kit CBA Human Soluble Protein Multiplex Flex Set System.
PBMC (5 x 10^4 cells/well) from 8 patients with rheumatoid arthritis were cultured in duplicate 200 µl of complete medium supplement with the highest solvent concentration (10^-6 M), and 10^-6 M, 10^-7 M and 10^-8 M of compound 12, in the presence and absence either of LPS (10 µg/ml), or anti-CD3 (12.5 ng/ml) + anti-CD28 (1/3x10^5), during 24 hours. Culture supernatants were frozen at -20°C and IFN-gamma concentration was assessed by BD FACS Array Bioanalyser by using CBA Flex Set, specific to determine IFN-gamma concentration, following the manufacturer instructions.

IL-8 = IL-8 production by PBMC from patients with rheumatoid arthritis, CBA; type: cell-based, human; conditions: 24 hours, mean ± standard error, n=8
Procedure: as §1, §2, §3
The effect on IL-8 production by PBMC from patients with rheumatoid arthritis was also studied. PBMC (5 x 10^4 cells per well) from 8 patients with rheumatoid arthritis were cultured in duplicate in 200 µl of complete medium supplemented with the highest solvent concentration (10^-6 M), and 10^-6 M, 10^-7 M and 10^-8 M of compound 12, in the presence and in the absence of either LPS (10 µg/ml) or anti-CD3 (12.5 ng/ml) + anti-CD28 (1/3x10^5), during 24 hours. Culture supernatants were frozen at -20°C and IL-8 concentration was quantified by BD FACS Array Bioanalyser by using CBA Flex Set, specific to determine IL-8 concentration, following the manufacturer instructions.

Cc1nc(OC2CCCC2)c(-c2ccc(S(C)(=O)=O)cc2)s1 [compound 12, 4-cyclopentyloxy-5-(4-methylsulfonyl-phenyl)-2-methylthiazole]
IFN-gamma production in PMBC from patients with rheumatoid arthritis (IFN-gamma; LPS (10µg/ml), 10^-6 M, vehicle 461.14±85.00, p 0.484): 205.26±46.00 (0.484) pg/mL
IFN-gamma production in PMBC from patients with rheumatoid arthritis (IFN-gamma; LPS (10µg/ml), 10^-7 M, vehicle 461.14±85.00, p 0.208): 146.50±33.00 (0.208) pg/mL
IFN-gamma production in PMBC from patients with rheumatoid arthritis (IFN-gamma; LPS (10µg/ml), 10^-8 M, vehicle 461.14±85.00, p 0.889): 248.73±35.00 (0.889) pg/mL
IFN-gamma production in PMBC from patients with rheumatoid arthritis (IFN-gamma; anti-CD3 (12.5 ng/ml) + anti-CD28 (1/3x10^5), 10^-6 M, vehicle 8406.18±1000.00, p 0.05): 5115.27±600.00 (0.05) pg/mL
IFN-gamma production in PMBC from patients with rheumatoid arthritis (IFN-gamma; anti-CD3 (12.5 ng/ml) + anti-CD28 (1/3x10^5), 10^-7 M, vehicle 8406.18±1000.00, p 0.05): 6411.71±700.00 (0.05) pg/mL
IFN-gamma production in PMBC from patients with rheumatoid arthritis (IFN-gamma; anti-CD3 (12.5 ng/ml) + anti-CD28 (1/3x10^5), 10^-8 M, vehicle 8406.18±1000.00, p 0.017): 7122.07±950 (0.017) pg/mL
IFN-gamma production in PMBC from patients with rheumatoid arthritis (IFN-gamma; medium, 10^-6 M, vehicle 145.49±28.00, p 0.779): 193.68±45.00 (0.779) pg/mL
IFN-gamma production in PMBC from patients with rheumatoid arthritis (IFN-gamma; medium, 10^-7 M, vehicle 145.49±28.00, p 0.208): 203.72±50.00 (0.208) pg/mL
IFN-gamma production in PMBC from patients with rheumatoid arthritis (IFN-gamma; medium, 10^-8 M, vehicle 145.49±28.00, p 0.674): 235.10±60.00 (0.674) pg/mL
IL-8 production in PMBC from patients with rheumatoid arthritis (IL-8; LPS (10µg/ml), 10^-6 M, vehicle 150759.65±22966.06, p 0.012): 185536.78±22000.00 (0.012) pg/mL
IL-8 production in PMBC from patients with rheumatoid arthritis (IL-8; LPS (10µg/ml), 10^-7 M, vehicle 150759.65±22966.06, p 0.208): 174156.23±13385.66 (0.208) pg/mL
IL-8 production in PMBC from patients with rheumatoid arthritis (IL-8; LPS (10µg/ml), 10^-8 M, vehicle 150759.65±22966.06, p 0.012): 184541.37±21500.00 (0.012) pg/mL
IL-8 production in PMBC from patients with rheumatoid arthritis (IL-8; anti-CD3 (12.5 ng/ml) + anti-CD28 (1/3x10^5), 10^-6 M, vehicle 118017.97±21116.00, p 0.263): 124576.09±14605.02 (0.263) pg/mL
IL-8 production in PMBC from patients with rheumatoid arthritis (IL-8; anti-CD3 (12.5 ng/ml) + anti-CD28 (1/3x10^5), 10^-7 M, vehicle 118017.97±21116.00, p 0.889): 109607.00±18310.15 (0.889) pg/mL
IL-8 production in PMBC from patients with rheumatoid arthritis (IL-8; anti-CD3 (12.5 ng/ml) + anti-CD28 (1/3x10^5), 10^-8 M, vehicle 118017.97±21116.00, p 0.575): 121587.88±16117.25 (0.575) pg/mL
IL-8 production in PMBC from patients with rheumatoid arthritis (IL-8; medium, 10^-6 M, vehicle 57877.64±11143.52, p 0.208): 98012.08±8395.97 (0.208) pg/mL
IL-8 production in PMBC from patients with rheumatoid arthritis (IL-8; medium, 10^-7 M, vehicle 57877.64±11143.52, p 0.161): 96498.50±10784.62 (0.161) pg/mL
IL-8 production in PMBC from patients with rheumatoid arthritis (IL-8; medium, 10^-8 M, vehicle 57877.64±11143.52, p 0.123): 93977.67±9247.38 (0.123) pg/mL
